One assay addresses EGFR L858R/T790M (Homo sapiens (Human), UniProt P00533, L858R/T790M). The experiment in a line: HTRF-based EGFR biochemical assay (L858R/T790M). The conditions noted are these: 100 μM ATP, enzyme 0.02 nM. A digest of the protocol:
(§1)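 Mutant EGFR (L858R 0.1 nM, L858R/T790M 0.02 nM) preincubated 30 min with compounds at room temperature in HEPES pH 7.0 buffer with Mg2+/Mn2+, then reacted 20 min with 1 μM biotinylated tyrosine kinase peptide and 100 μM ATP. Phosphorylation read by HTRF (Eu-cryptate anti-phosphotyrosine/streptavidin-XL665, 665/620 nm) after EDTA quench.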

Assay [1] deals with EGFR mutant L858R/T790M Ba/F3 cells. The experiment in a line: Ba/F3 cell proliferation model (Cell Titer Glo), EGFR L858R/T790M. Particulars: 72 hours. It counts as cell-based, murine. The method in brief:
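Retrovirally transduced Ba/F3 cells exposed 72 h to compound alone or with 1 μg/mL cetuximab, triplicate points, repeated at least three times. Viability by Cell Titer Glo luminescence (ATP); curves fitted by non-linear sigmoidal dose-response regression.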
In general terms: ATP-based viability assays read luminescence as a measure of living cells.

The next assay deals with EGFR L858R (Homo sapiens (Human), UniProt P00533, L858R). Kind of assay: HTRF-based EGFR biochemical assay (L858R). Particulars: 100 μM ATP, enzyme 0.1 nM. The method in brief:
as §1
Background: Time-resolved FRET reads energy transfer from a long-lived donor to a nearby acceptor.

Assay [2] deals with EGFR mutant L858R Ba/F3 cells. The experiment in a line: Ba/F3 cell proliferation model (Cell Titer Glo), EGFR L858R. Particulars: 72 hours. It counts as cell-based, murine. From the text:
Example 26: Ba/F3 Cell Proliferation Models
The EGFR mutant L858R and L858R/T790M Ba/F3 cells have been previously described (Zhou, W., et al. Nature 462, 2009, 1070-1074). All cell lines were maintained in RPM 1640 (Cellgro; Mediatech Inc., Herndon. CA) supplemented with 10% FBS, 100 units/mL penicillin, 100 units/mL streptomycin. The EGFR I941R mutation was introduced via site directed mutagenesis using the Quick Change Site-Directed Mutagenesis kit (Stratagene; La Jolla, CA) according to the manufacturer's instructions. All constructs were confirmed by DNA sequencing. The constructs were shuttled into the retroviral vector JP1540 using the Cre-recombination system (Agilent Technologies, Santa Clara, CA). Ba/F3 cells were then infected with retrovirus per standard protocols, as described previously (Zhou, et al, Nature 2009). Stable clones were obtained by selection in puromycin (2 μg/ml).
Growth and inhibition of growth was assessed by the Cell Titer Glo® assay (Promega, Madison, WI) and was performed according to the manufacturer's instructions. The Cell Titer Glo® assay is a luminescence-based method used to determine the number of viable cells based on quantitation of the ATP present, which is directly proportional to the amount of metabolically active cells present. Ba/F3 cells of different EGFR genotypes were exposed to compounds as a single agent or in combination with 1 μg/mL cetuximab for 72 hours and the number of cells used per experiment was determined empirically as has been previously established (Zhou, et al., Nature 2009). All experimental points were set up in triplicates in 384-well plates and all experiments were repeated at least three times. […] The curves were fitted using a non-linear regression model with a sigmoidal dose response.

Setting [3] is: Mus musculus, BaF3, single agent, read-out: Cell IC50 BaF3 EGFR L858R/T790M.
Where [4] appears, read: in combination with 1 μg/mL cetuximab, read-out: Cell IC50 BaF3 EGFR L858R/T790M (+cetux.).
Setting [5] is: Mus musculus, BaF3, single agent, read-out: Cell IC50 BaF3 EGFR L858R.
The mark [6] stands for this setting: in combination with 1 μg/mL cetuximab, read-out: Cell IC50 BaF3 EGFR L858R (+cetux.).

SMILES strings stand for the structures. Structures can show the parent of a compound that is named as a salt. Where two headings read alike, the source gives them in different places.

Sequence of EGFR L858R/T790M (P00533 25-1210 T790M/L858R): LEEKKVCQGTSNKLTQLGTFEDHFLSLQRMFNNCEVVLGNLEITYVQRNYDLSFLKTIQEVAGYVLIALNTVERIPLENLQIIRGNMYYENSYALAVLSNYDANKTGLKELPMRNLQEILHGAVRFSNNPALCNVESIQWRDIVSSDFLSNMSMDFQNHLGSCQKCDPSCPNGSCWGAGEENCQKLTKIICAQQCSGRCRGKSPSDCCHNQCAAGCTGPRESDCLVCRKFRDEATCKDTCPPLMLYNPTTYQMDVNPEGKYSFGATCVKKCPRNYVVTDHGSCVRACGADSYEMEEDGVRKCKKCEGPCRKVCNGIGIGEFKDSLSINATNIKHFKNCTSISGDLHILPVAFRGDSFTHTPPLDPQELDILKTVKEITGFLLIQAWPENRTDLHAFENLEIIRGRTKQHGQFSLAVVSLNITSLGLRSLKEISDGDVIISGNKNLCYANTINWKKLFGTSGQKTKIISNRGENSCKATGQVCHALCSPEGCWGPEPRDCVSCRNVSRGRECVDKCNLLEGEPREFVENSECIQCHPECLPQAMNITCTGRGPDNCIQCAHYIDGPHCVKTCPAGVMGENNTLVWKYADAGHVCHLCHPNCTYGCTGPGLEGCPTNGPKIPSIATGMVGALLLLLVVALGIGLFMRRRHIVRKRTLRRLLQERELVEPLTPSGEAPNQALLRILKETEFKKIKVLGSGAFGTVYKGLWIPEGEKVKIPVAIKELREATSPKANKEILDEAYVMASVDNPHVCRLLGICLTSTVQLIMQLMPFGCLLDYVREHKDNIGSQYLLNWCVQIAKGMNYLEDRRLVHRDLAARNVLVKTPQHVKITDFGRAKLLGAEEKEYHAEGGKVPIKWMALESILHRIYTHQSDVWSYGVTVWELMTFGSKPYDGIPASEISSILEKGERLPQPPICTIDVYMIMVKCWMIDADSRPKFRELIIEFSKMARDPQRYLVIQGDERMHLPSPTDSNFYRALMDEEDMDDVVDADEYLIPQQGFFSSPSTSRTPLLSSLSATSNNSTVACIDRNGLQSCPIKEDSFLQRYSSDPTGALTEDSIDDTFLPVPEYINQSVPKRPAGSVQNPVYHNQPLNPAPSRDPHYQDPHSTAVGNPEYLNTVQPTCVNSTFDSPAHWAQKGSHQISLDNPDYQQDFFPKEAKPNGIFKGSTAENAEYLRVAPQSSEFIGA
Sequence of EGFR L858R (P00533 25-1210 L858R): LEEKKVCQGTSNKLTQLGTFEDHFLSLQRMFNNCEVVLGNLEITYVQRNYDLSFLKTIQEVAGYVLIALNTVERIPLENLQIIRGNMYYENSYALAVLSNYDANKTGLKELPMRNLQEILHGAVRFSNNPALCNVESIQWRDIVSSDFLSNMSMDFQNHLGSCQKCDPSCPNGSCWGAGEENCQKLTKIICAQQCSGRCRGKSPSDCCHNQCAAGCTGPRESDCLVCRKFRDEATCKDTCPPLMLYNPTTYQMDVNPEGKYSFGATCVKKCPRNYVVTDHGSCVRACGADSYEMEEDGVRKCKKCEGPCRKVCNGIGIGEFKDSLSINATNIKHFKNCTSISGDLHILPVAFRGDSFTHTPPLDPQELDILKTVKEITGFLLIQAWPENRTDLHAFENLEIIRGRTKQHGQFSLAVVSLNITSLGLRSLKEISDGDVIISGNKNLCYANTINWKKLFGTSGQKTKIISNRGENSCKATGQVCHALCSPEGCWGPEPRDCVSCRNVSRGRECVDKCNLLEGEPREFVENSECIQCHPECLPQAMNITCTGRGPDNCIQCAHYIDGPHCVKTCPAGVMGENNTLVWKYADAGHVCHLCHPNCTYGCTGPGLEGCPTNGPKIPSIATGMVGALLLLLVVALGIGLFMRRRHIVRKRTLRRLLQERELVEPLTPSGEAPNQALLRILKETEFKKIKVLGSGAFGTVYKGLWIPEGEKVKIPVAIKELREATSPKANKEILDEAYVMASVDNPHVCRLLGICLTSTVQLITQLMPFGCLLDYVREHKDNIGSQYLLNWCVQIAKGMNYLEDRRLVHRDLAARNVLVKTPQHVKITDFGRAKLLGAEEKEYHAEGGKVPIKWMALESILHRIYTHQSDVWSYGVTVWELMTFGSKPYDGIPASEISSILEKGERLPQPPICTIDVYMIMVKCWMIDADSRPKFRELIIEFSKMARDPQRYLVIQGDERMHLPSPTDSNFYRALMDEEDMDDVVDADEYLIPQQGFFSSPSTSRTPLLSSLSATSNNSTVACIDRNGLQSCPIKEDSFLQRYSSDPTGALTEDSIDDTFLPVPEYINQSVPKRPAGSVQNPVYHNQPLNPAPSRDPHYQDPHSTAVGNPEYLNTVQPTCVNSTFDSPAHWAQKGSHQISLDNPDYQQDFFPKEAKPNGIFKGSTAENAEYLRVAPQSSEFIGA

On to `CN1CCC(c2ccc(-c3ccc4ncn(C(c5nc6ccccc6[nH]5)c5cc(F)ccc5O)c(=O)c4c3Cl)cc2)CC1` (stereo not drawn) [Compound 075, 3-[1H-benzimidazol-2-yl-(5-fluoro-2-hydroxy-phenyl)methyl]-5-chloro-6-[4-(1-methyl-4-piperidy)phenyl]-quinazolin-4-one; dihydrochloride], for which the IC50 stood at 0.7 nM on EGFR L858R/T790M; 90 nM in assay [1] (setting [3]); 20 nM in assay [1] (setting [4]); 1 nM against EGFR L858R; 100 nM in assay [2] (setting [5]).
For `CN1CCC(c2ccc(-c3cc4ccn(C(c5nc6ccccc6[nH]5)c5cc(F)ccc5O)c(=O)c4cc3F)cc2)CC1` (stereo not drawn) [Compound 073, 2-[1H-benzimidazol-2-yl-(5-fluoro-2-hydroxy-phenyl)methyl]-7-fluoro-6-[4-(1-methyl-4-piperidy)phenyl]-isoquinolin-1-one], the IC50 against EGFR L858R/T790M stood at 14 nM; in assay [1] (setting [3]) it was 580 nM; in assay [1] (setting [4]) it was 20 nM; at EGFR L858R, 21 nM; in assay [2] (setting [5]), 930 nM.
Consider `CN1CCC(c2ccc(-c3ccc4ncn(C(c5nc6ccccc6[nH]5)c5cc(F)ccc5O)c(=O)c4c3F)cc2)CC1` (stereo not drawn) [Compound 004, 3-((1H-Benzo[d]imidazol-2-yl)(5-fluoro-2-hydroxyphenyl)methyl)-5-fluoro-6-(4-(1-methylpiperidin-4-yl)phenyl)quinazolin-4(3H)-one 2,2,2-trifluoroacetate], for which the IC50 on EGFR L858R/T790M amounted to 0.4 nM; in assay [1] (setting [3]), 90 nM; in assay [1] (setting [4]), 10 nM; on EGFR L858R, 1 nM; in assay [2] (setting [5]), 240 nM; in assay [2] (setting [6]), 30 nM.
In the case of `Cc1c[nH]c(C(c2cccc(F)c2)N2Cc3ccc(-c4ccc(C5CCN(C)CC5)cc4)cc3C2=O)n1` (stereo not drawn) [Compound 086, 2-[(3-fluorophenyl)-(4-methyl-1H-imidazol-2-yl)methyl]-6-[4-(1-methyl-4-piperidyl)phenyl]isoindolin-1-one], the IC50 on EGFR L858R/T790M is 25 nM; in assay [1] (setting [3]) it was 3220 nM; against EGFR L858R it was more than 100 nM; in assay [2] (setting [5]) it was 3640 nM.
The corresponding values for `Cc1nc(C(c2cc(F)ccc2O)N2Cc3ccc(-c4ccc(C5CCN(C)CC5)cc4)cc3C2=O)[nH]c1C` (stereo not drawn) [Compound 087, 2-[(4,5-dimethyl-1H-imidazol-2-yl)-(5-fluoro-2-hydroxy-phenyl)methyl]-6-[4-(1-methyl-4-piperidyl)phenyl]isoindolin-1-one] are 25 nM, 1320 nM, more than 100 nM and 1370 nM.
On to `Cc1c[nH]c(C(c2cc(F)ccc2O)N2Cc3ccc(-c4ccc(C5CCN(C)CC5)cc4)cc3C2=O)n1` (stereo not drawn) [Compound 085, 2-[(5-Fluoro-2-hydroxy-phenyl)-(4-methyl-1H-imidazol-2-yl)methyl]-6-[4-(1-methyl-4-piperidyl)phenyl]isoindolin-1-one], for which the IC50 against EGFR L858R/T790M came to 28 nM; in assay [1] (setting [3]) it was 1290 nM; in assay [1] (setting [4]), 50 nM; against EGFR L858R, 13 nM; in assay [2] (setting [5]) it was 780 nM.
Consider `CN1CCC(c2ccc(-c3ccc4c(c3)C(=S)N([C@@H](c3nc5ccccc5[nH]3)c3cc(F)ccc3O)C4)cc2)CC1` (single isomer, unassigned) [Compound 083], for which the IC50 is 0.6 nM at EGFR L858R/T790M, 200 nM in assay [1] (setting [3]), 1 nM against EGFR L858R and 630 nM in assay [2] (setting [5]).
As to `Cc1nnc(C(c2cc(F)ccc2O)N2Cc3ccc(-c4ccc(C5CCN(C)CC5)cc4)cc3C2=O)[nH]1` (stereo not drawn) [Compound 089, 2-[(5-fluoro-2-hydroxy-phenyl)-(5-methyl-4H-1,2,4-triazol-3-yl)methyl]-6-[4-(1-methyl-4-piperidyl)phenyl]isoindolin-1-one;hydrochloride], the IC50 in assay [1] (setting [3]) came to 5950 nM; in assay [2] (setting [5]), 4530 nM.
For the compound `CN1CCC(c2ccc(-c3ccc4c(c3)C(=O)N(C(c3nc5cccc(F)c5[nH]3)c3cc(F)ccc3O)C4)cc2)CC1` (stereo not drawn) [Compound 020, 2-[(7-Fluoro-1H-benzimidazol-2-yl)-(5-fluoro-2-hydroxy-phenylmethyl]-6-(4-(1-methy-4-piperidyl)phenyl]isoindolin-1-one; hydrochloride], the IC50 in assay [1] (setting [3]) was determined as 440 nM; in assay [1] (setting [4]), 6 nM; in assay [2] (setting [5]) it was 1360 nM; in assay [2] (setting [6]), 170 nM.
Take `CN1CCC(c2ccc(-c3ccc4c(c3F)C(=O)N(C(c3nc5ccccc5[nH]3)c3cc(F)ccc3O)C4)cc2)CC1` (stereo not drawn) [Compound 032, 2-[1H-benzimidazol-2-yl-(5-fluoro-2-hydroxy-phenyl)methyl]-7-fluoro-6-[4-(1-methyl-4-piperidyl)phenyl]isoindolin-1-one;hydrochloride]: the IC50 in assay [1] (setting [3]) was 210 nM; in assay [1] (setting [4]) it was 7 nM; in assay [2] (setting [5]), 960 nM; in assay [2] (setting [6]), 50 nM.
`O=C1c2cc(C#CCN3CCS(=O)(=O)CC3)ccc2CN1C(c1nc2ccccc2[nH]1)c1cc(F)ccc1O` (stereo not drawn) [Compound 013, 2-[1H-benzimidazol-2-yl-(5-fluoro-2-hydroxy-phenyl)methyl]-6-[3-(1,1-dioxo-1,4-thiazinan-4-yl)prop-1-ynyl]isoindolin-1-one; hydrochloride]: the IC50 on EGFR L858R/T790M is 33 nM; in assay [1] (setting [3]), more than 10000 nM; in assay [1] (setting [4]), 260 nM; on EGFR L858R, 22 nM.
In the same order, the values of `CN1CCC(c2ccc(-c3ccc4c(c3)C(=O)N(C(c3nc5ccccc5[nH]3)c3cc(Cl)ccc3O)C4)cc2)CC1` (stereo not drawn) [Compound 044, 2-[1H-benzimidazol-2-yl-(5-chloro-2-hydroxy-phenyl)-methyl]-6-[4-(1-methyl-4-piperidyl)phenyl]isoindolin-1-one; hydrochloride] are 2 nM, 1500 nM, 50 nM and 6 nM.
Take `CN1CCC(c2ccc(-c3ccc4c(c3)C(=O)N(C(c3ccn[nH]3)c3cc(F)ccc3O)C4)cc2)CC1` (stereo not drawn) [Compound 045, 2-[(5-fluoro-2-hydroxy-phenyl)-(1H-pyrazol-3-yl)methyl]-6-[4-(1-methyl-4-piperidyl)phenyl]-isoindolin-1-one]: the IC50 against EGFR L858R/T790M is 18 nM; in assay [1] (setting [3]), 3740 nM; in assay [1] (setting [4]) it was 1170 nM; at EGFR L858R it was 32 nM.
The corresponding values for `COc1ccc(F)cc1C(c1nc2ccccc2[nH]1)n1cc2ccc(-c3ccc(C4CCN(C)CC4)cc3)c(F)c2n1` (stereo not drawn) [Compound 035, 2-[1H-benzimidazol-2-yl-(5-fluoro-2-methoxy-phenyl)methyl]-7-fluoro-6-[4-(1-methyl-4-piperidyl)phenyl]indazole] are 42 nM, 3600 nM, 530 nM and 507 nM.
With `Nc1ccc(-c2ccc(-c3ccc4c(c3)C(=O)N(C(c3nc5ccccc5[nH]3)c3cc(F)ccc3O)C4)cc2)cn1` (stereo not drawn) [Compound 061, 6-[4-(6-amino-3-pyridyl)phenyl]-2-[1H-benzimidazol-2-yl-(5-fluoro-2-hydroxy-phenyl)-methyl]isoindolin-1-one; hydrochloride], the IC50 on EGFR L858R/T790M stood at 11 nM; in assay [1] (setting [3]), 790 nM; in assay [1] (setting [4]), 20 nM; against EGFR L858R it was 69 nM.

The values above are taken from patent publication US12391671B2, “Allosteric EGFR inhibitors and methods of use thereof” (Dana-Farber Cancer Institute, Inc., priority 2019, dated 2025).
